Measured values reported in US8834579B2, “Dye composition for hair dyeing and method for producing the same” (Hodogaya Chemical Co., Ltd., priority 2012, dated 2014).
Read-outs that look alike come from different tables or passages of the source.

Columns and labels:
[1] = test system: Salmonella typhimurium TA98 strain; assay: Ames test (reverse mutation test), TA98 strain; assay type: cell-based
Excerpt: (§1) The Ames test is a test system for detecting a phenomenon that a histidine-requiring strain, which cannot grow without a specific amino acid (for example, histidine), is returned to a histidine-nonrequiring strain by a gene mutation due to a mutational substance. The Ames test is also called a reverse mutation test because a strain regains its original nature by a gene mutation. In the case of a metabolic activation test, a test substance, a test strain, and an enzyme for activating metabolism of drugs (S-9Mix) are mixed, and the mixture is cultured for 48 hours at 37° C. using an agar medium after preincubation for 20 minutes at 37° C. The number of induced revertant colonies is counted, and it is determined to be positive in the case where the ratio (MR value) of the number of the induced revertant colonies to the number of revertant colonies appearing in a negative control is 2 or more (refer to, for example, “Bacterial Reverse Mutation Test.” OECD GUIDELINE FOR TESTING OF CHEMICALS, no. 471, Adopted: 21, Jul. 1997).
(§2) The metabolic activation test is a test carried out by adding an enzyme for activating metabolism of drugs (that is, S-9Mix) which is obtained from a liver of a rat or the like in order to bring a metabolic system of drugs for microbes close to that of mammals.
(§3) With respect to Basic Brown 16 before and after purification, the Ames test was carried out using Salmonella typhimurium TA98 strain and Salmonella typhimurium TA1537 strain with and without an enzyme for activating metabolism of drugs (S-9Mix) in each strain.
(§4) The Ames test was carried out on the same condition also with respect to the component indicating positive in the Ames test and represented by the structural formula (III) among impurities contained in Basic Brown 16.

[2] = test system: Salmonella typhimurium TA1537 strain; assay: Ames test (reverse mutation test), TA1537 strain; assay type: cell-based
Excerpt: as §1, §2, §3, §4

[3] = strain not stated; SCCP Opinion on Basic Brown 16, 2008; cited from earlier work
[4] = test system: Salmonella typhimurium TA98 strain; details: TA98 (TA1537 strain and/or TA98 strain); SCCP Opinion on Basic Brown 16, 2008; cited from earlier work
[5] = test system: Salmonella typhimurium TA1537 strain; details: TA1537 (TA1537 strain and/or TA98 strain); SCCP Opinion on Basic Brown 16, 2008; cited from earlier work

CN(C)c1ccc2ccc(O)c(N=Nc3ccc(N)cc3)c2c1 [Component of structural formula (III)]
Ames test result ([1]; TA98): positive (it is determined to be positive in the case where the ratio (MR value) of the number of the induced revertant colonies to the number of revertant colonies appearing in a negative control is 2 or more)
MR value (ratio of induced revertant colonies to negative control) ([1]; TA98, +S9 (with S-9Mix)): 53.0
MR value (ratio of induced revertant colonies to negative control) ([1]; TA98, −S9 (without S-9Mix)): 0.9
Ames test result ([2]; TA1537): positive (it is determined to be positive in the case where the ratio (MR value) of the number of the induced revertant colonies to the number of revertant colonies appearing in a negative control is 2 or more)
MR value (ratio of induced revertant colonies to negative control) ([2]; TA1537, +S9 (with S-9Mix)): 10.5
MR value (ratio of induced revertant colonies to negative control) ([2]; TA1537, −S9 (without S-9Mix)): 1.2

C[N+](C)(C)c1ccc2ccc(O)c(N=Nc3ccc(N)cc3)c2c1.[Cl-] [Basic Brown 16]
Ames test result [3]: positive
Ames test result [4]: positive
Ames test result [5]: positive
